Test results as given in patent US20170333532A1, “ADP'ASE-ENHANCED APYRASE THERAPY FOR WOUNDS, MICROBIAL INFECTION, SEPSIS, AND HETEROTOPIC OSSIFICATION” (APT THERAPEUTICS, INC, priority 2014, published 2017).

Test system: A. baumannii strain VBA9
Assay: Killing of colistin-resistant A. baumannii VBA9 by colistin with Apyrase Agent, CFU count
Type: cell-based
Details: colistin at less than 10-15 μg/ml, with Apyrase Agent 2 U/ml or alone
Method: In this Example (and in subsequent Examples), the colistin is colistin sulfate salt, catalog number C4461 from Sigma-Aldrich (St. Louis, Mo.) and the apyrase is catalog number M0393L from New England BioLabs Inc. (Ipswich, Mass.).
Approximately 10^5 to 10^6 CFU/ml of the colistin-resistant A. baumannii strain VBA9 is grown in the presence of combinations of 0 and 2 U/ml of Apyrase Agent and approximately 0 to 32 μg/ml of colistin. After incubation, the numbers of viable cells are determined by counting the colony forming units (CFU) on the plate (data provided as CFU/ml). Apyrase Agent improves the efficiency of killing A. baumannii strain VBA9 by colistin. Apyrase Agent increases the effectiveness of colistin at less than 10-15 μg/ml such that less than 10 to 100 CFU/ml are detected relative to greater than 10^6 to 10^7 in the presence of colistin alone.

colistin sulfate salt
numbers of viable cells (CFU): 10^6 to 10^7 CFU/ml
